# Test system: G3BP1 NFT2
# Assay type: binding, human
# Conditions: library DMS-CoV, bait G3BP1 NFT2, prey N, listed as aa = residue placed at this position, column sums to 1
sequence,measurement,setting,value
RNAPRITFGGPSDSTG T15R (RNAPRITFGGPSDSRG),"DMS PSSM value, T (position 15)",peptide RNAPRITFGGPSDSTG,0
APRITFGGPSDSTGSN S15F (APRITFGGPSDSTGFN),"DMS PSSM value, S (position 15)",peptide APRITFGGPSDSTGSN,0.2174
APRITFGGPSDSTGSN G8S (APRITFGSPSDSTGSN),"DMS PSSM value, G (position 8)",peptide APRITFGGPSDSTGSN,0.005734
APRITFGGPSDSTGSN I4Q (APRQTFGGPSDSTGSN),"DMS PSSM value, I (position 4)",peptide APRITFGGPSDSTGSN,0
RNAPRITFGGPSDSTG G16E (RNAPRITFGGPSDSTE),"DMS PSSM value, G (position 16)",peptide RNAPRITFGGPSDSTG,0
APRITFGGPSDSTGSN P9W (APRITFGGWSDSTGSN),"DMS PSSM value, P (position 9)",peptide APRITFGGPSDSTGSN,0
APRITFGGPSDSTGSN S10R (APRITFGGPRDSTGSN),"DMS PSSM value, S (position 10)",peptide APRITFGGPSDSTGSN,0
APRITFGGPSDSTGSN I4K (APRKTFGGPSDSTGSN),"DMS PSSM value, I (position 4)",peptide APRITFGGPSDSTGSN,0
APRITFGGPSDSTGSN F6N (APRITNGGPSDSTGSN),"DMS PSSM value, F (position 6)",peptide APRITFGGPSDSTGSN,0
APRITFGGPSDSTGSN G7E (APRITFEGPSDSTGSN),"DMS PSSM value, G (position 7)",peptide APRITFGGPSDSTGSN,0.08457
APRITFGGPSDSTGSN T5H (APRIHFGGPSDSTGSN),"DMS PSSM value, T (position 5)",peptide APRITFGGPSDSTGSN,0
RNAPRITFGGPSDSTG D13R (RNAPRITFGGPSRSTG),"DMS PSSM value, D (position 13)",peptide RNAPRITFGGPSDSTG,0
RNAPRITFGGPSDSTG I6F (RNAPRFTFGGPSDSTG),"DMS PSSM value, I (position 6)",peptide RNAPRITFGGPSDSTG,0
APRITFGGPSDSTGSN G8K (APRITFGKPSDSTGSN),"DMS PSSM value, G (position 8)",peptide APRITFGGPSDSTGSN,0
RNAPRITFGGPSDSTG N2D (RDAPRITFGGPSDSTG),"DMS PSSM value, N (position 2)",peptide RNAPRITFGGPSDSTG,0.4666
APRITFGGPSDSTGSN T5M (APRIMFGGPSDSTGSN),"DMS PSSM value, T (position 5)",peptide APRITFGGPSDSTGSN,0
RNAPRITFGGPSDSTG A3D (RNDPRITFGGPSDSTG),"DMS PSSM value, A (position 3)",peptide RNAPRITFGGPSDSTG,0.1526
RNAPRITFGGPSDSTG G10W (RNAPRITFGWPSDSTG),"DMS PSSM value, G (position 10)",peptide RNAPRITFGGPSDSTG,0
RNAPRITFGGPSDSTG P4V (RNAVRITFGGPSDSTG),"DMS PSSM value, P (position 4)",peptide RNAPRITFGGPSDSTG,0
RNAPRITFGGPSDSTG G9I (RNAPRITFIGPSDSTG),"DMS PSSM value, G (position 9)",peptide RNAPRITFGGPSDSTG,0
APRITFGGPSDSTGSN P2W (AWRITFGGPSDSTGSN),"DMS PSSM value, P (position 2)",peptide APRITFGGPSDSTGSN,0
APRITFGGPSDSTGSN G14Q (APRITFGGPSDSTQSN),"DMS PSSM value, G (position 14)",peptide APRITFGGPSDSTGSN,0.3116
APRITFGGPSDSTGSN G8A (APRITFGAPSDSTGSN),"DMS PSSM value, G (position 8)",peptide APRITFGGPSDSTGSN,0.9067
APRITFGGPSDSTGSN A1P (PPRITFGGPSDSTGSN),"DMS PSSM value, A (position 1)",peptide APRITFGGPSDSTGSN,0.006009
RNAPRITFGGPSDSTG G9M (RNAPRITFMGPSDSTG),"DMS PSSM value, G (position 9)",peptide RNAPRITFGGPSDSTG,0
RNAPRITFGGPSDSTG F8Y (RNAPRITYGGPSDSTG),"DMS PSSM value, F (position 8)",peptide RNAPRITFGGPSDSTG,0
APRITFGGPSDSTGSN A1R (RPRITFGGPSDSTGSN),"DMS PSSM value, A (position 1)",peptide APRITFGGPSDSTGSN,0
RNAPRITFGGPSDSTG S14A (RNAPRITFGGPSDATG),"DMS PSSM value, S (position 14)",peptide RNAPRITFGGPSDSTG,0
RNAPRITFGGPSDSTG F8R (RNAPRITRGGPSDSTG),"DMS PSSM value, F (position 8)",peptide RNAPRITFGGPSDSTG,0
APRITFGGPSDSTGSN G7R (APRITFRGPSDSTGSN),"DMS PSSM value, G (position 7)",peptide APRITFGGPSDSTGSN,0
RNAPRITFGGPSDSTG P4F (RNAFRITFGGPSDSTG),"DMS PSSM value, P (position 4)",peptide RNAPRITFGGPSDSTG,0
APRITFGGPSDSTGSN P2G (AGRITFGGPSDSTGSN),"DMS PSSM value, P (position 2)",peptide APRITFGGPSDSTGSN,0
APRITFGGPSDSTGSN S12T (APRITFGGPSDTTGSN),"DMS PSSM value, S (position 12)",peptide APRITFGGPSDSTGSN,0.00392
RNAPRITFGGPSDSTG G10E (RNAPRITFGEPSDSTG),"DMS PSSM value, G (position 10)",peptide RNAPRITFGGPSDSTG,0
APRITFGGPSDSTGSN D11Q (APRITFGGPSQSTGSN),"DMS PSSM value, D (position 11)",peptide APRITFGGPSDSTGSN,0.007406
RNAPRITFGGPSDSTG F8H (RNAPRITHGGPSDSTG),"DMS PSSM value, F (position 8)",peptide RNAPRITFGGPSDSTG,0
RNAPRITFGGPSDSTG I6T (RNAPRTTFGGPSDSTG),"DMS PSSM value, I (position 6)",peptide RNAPRITFGGPSDSTG,0
APRITFGGPSDSTGSN G8E (APRITFGEPSDSTGSN),"DMS PSSM value, G (position 8)",peptide APRITFGGPSDSTGSN,0.0007374
RNAPRITFGGPSDSTG R5T (RNAPTITFGGPSDSTG),"DMS PSSM value, R (position 5)",peptide RNAPRITFGGPSDSTG,0.001368
RNAPRITFGGPSDSTG F8V (RNAPRITVGGPSDSTG),"DMS PSSM value, F (position 8)",peptide RNAPRITFGGPSDSTG,0
APRITFGGPSDSTGSN I4T (APRTTFGGPSDSTGSN),"DMS PSSM value, I (position 4)",peptide APRITFGGPSDSTGSN,0
RNAPRITFGGPSDSTG I6W (RNAPRWTFGGPSDSTG),"DMS PSSM value, I (position 6)",peptide RNAPRITFGGPSDSTG,0

# Source: publication PMC12102759 (Protein Science : A Publication of the Protein Society, 2025)
